In patent US20260165323A1, “USE OF STROBILURIN TYPE COMPOUNDS FOR COMBATING PHYTOPATHOGENIC FUNGI CONTAINING AN AMINO ACID SUBSTITUTION F129L IN THE MITOCHONDRIAL CYTOCHROME B PROTEIN CONFERRING RESISTANCE TO QO […]” (priority 2022, published 2026):

How the values were obtained:
Assay type in all cases: in vivo
[1] = tested on: Phakopsora pachyrhizi containing the amino acid substitution F129L in the mitochondrial cytochrome b protein; assay: Use Example 2: protective control of soybean rust on soybeans (PHAKPA P6); conditions: inoculated six days after spraying, % diseased leaf area
Experimental: (§1) The compound was dissolved in a mixture of acetone and/or dimethylsulfoxide and the wetting agent/emulsifier Wettol, which is based on ethoxylated alkylphenoles, in a ratio (volume) solvent-emulsifier of 99 to 1 to give a total volume of 5 ml. Subsequently, water was added to total volume of 100 ml. This stock solution was then diluted with the described solvent-emulsifier-water mixture to the final concentration given in the tables below.
Use Example 2. Protective Control of Soybean Rust on Soybeans Caused by Phakopsora Pachyrhizi (PHAKPA P6)
(§2) Leaves of potted soybean seedlings were sprayed to run-off with the previously described spray solution, containing the concentration of active ingredient as described below. The plants were allowed to air-dry. The trial plants were cultivated for six days in a greenhouse chamber at 23-27° C. and a relative humidity between 60 and 80%. Then the plants were inoculated with spores of Phakopsora pachyrhizi. The strain used contains the amino acid substitution F129L in the mitochondrial cytochrome b protein conferring resistance to Qo inhibitors. To ensure the success the artificial inoculation, the plants were transferred to a humid chamber with a relative humidity of about 95% and 23 to 27° C. for 24 hr. The trial plants were cultivated for up to 14 days in a greenhouse chamber at 23 to 27° C. and a relative humidity between 60 and 80%. The extent of fungal attack on the leaves was visually assessed as % diseased leaf area, the disease level of untreated controls was usually higher than 85%.

[2] = tested on: Phakopsora pachyrhizi containing the amino acid substitution F129L in the mitochondrial cytochrome b protein; assay: Use Example 1: protective control of soybean rust on soybeans (PHAKPA P2); conditions: inoculated 2 days after spraying, % diseased leaf area
Experimental: as §1
Use Example 1. Protective Control of Soybean Rust on Soybeans Caused by Phakopsora pachyrhizi (PHAKPA P2)
as §2, with “active ingredient or their mixture as described” for “active ingredient as described”, “cultivated for 2 days in” for “cultivated for six days in”, “95% and 20 to 24°” for “95% and 23 to 27°”, “20 to 24° C. for” for “23 to 27° C. for”

Puccinia recondita = assay: Use Example 4: preventative control of brown rust on wheat (PUCCRT P7); conditions: inoculated seven days after spraying, % diseased leaf area
Experimental: as §1
Use Example 4. Preventative Control of Brown Rust on Wheat Caused by Puccinia recondita (PUCCRT P7)
The first two developed leaves of potted wheat seedling were sprayed to run-off with previously described spray solution, containing the concentration of active ingredient or their mixture as described below. Seven days later the plants were dusted with spores of Puccinia recondita. To ensure the success of the artificial inoculation, the plants were transferred to a humid chamber without light and a relative humidity of 95 to 99% and 20 to 24° C. for 24 h. Then the trial plants were cultivated for 9 to 11 days in a greenhouse chamber at 20 to 24° C. and a relative humidity between 65 and 70%. The extent of fungal attack on the leaves was visually assessed as % diseased leaf area, the disease level of untreated controls was usually between 80 and 100%.

| Compound | % PHAKPA (F129L) Disease level P6 at 4 ppm [1] [%] | % PHAKPA (F129L) Disease level P6 at 16 ppm [1] [%] | % PHAKPA (F129L) Disease level P2 at 4 ppm [2] [%] | % PHAKPA (F129L) Disease level P2 at 16 ppm [2] [%] | % PUCCRT Disease level P7 at 4 ppm (Puccinia recondita) [%] | % PUCCRT Disease level P7 at 16 ppm (Puccinia recondita) [%] |
| --- | --- | --- | --- | --- | --- | --- |
| CNC(=O)/C(=N/OC)c1cccc(Cl)c1CO/N=C(\COC)c1ccc(F)c(F)c1F [compound 108] | 19 | 7 | 21 | 4 | – | – |
| COC/C(=N\OCc1c(Cl)cccc1/C(=N\OC)C(=O)OC)c1cc(F)cc(F)c1 [compound 82] | 57 | 22 | 12 | 0 | 57 | 17 |
| CNC(=O)/C(=N/OC)c1cccc(Cl)c1CO/N=C(\COC)c1ccc(Cl)cc1Cl [compound 85] | 65 | 25 | 42 | 37 | – | – |
| COC/C(=N\OCc1c(Cl)cccc1/C(=N\OC)C(=O)OC)c1cc(F)c(F)c(F)c1 [compound 72] | 48 | 10 | 19 | 1 | 60 | 16 |
| COC/C(=N\OCc1c(Cl)cccc1/C(=N\OC)C(=O)OC)c1ccc(Cl)c(F)c1 [compound 114] | 82 | 30 | 35 | 10 | – | – |
| CO/C=C(/C(=O)OC)c1cccc(Cl)c1CO/N=C(/COC)c1ccc(F)cn1 [compound 132, methyl (E)-2-[3-chloro-2-[[(E)-[1-(5-fluoro-2-pyridyl)-2-methoxy-ethylidene]amino]oxymethyl]phenyl]-3-methoxy-prop-2-enoate] | – | 15 | – | 33 | – | – |
| CNC(=O)/C(=N/OC)c1cccc(Cl)c1CO/N=C(\COC)c1ccc(F)cc1Cl [compound 94] | 43 | 11 | 29 | 5 | 57 | 26 |
| COC/C(=N\OCc1c(Cl)cccc1/C(=N\OC)C(=O)OC)c1cccc(C)c1 [compound 126] | 73 | 34 | 71 | 14 | – | – |
| COC/C(=N\OCc1c(Cl)cccc1/C(=N\OC)C(=O)OC)c1ccc(F)c(F)c1 [compound 90] | 42 | 13 | 11 | 0 | 32 | 10 |
| COC/C(=N\OCc1c(Cl)cccc1/C(=N\OC)C(=O)OC)c1ccc(F)cc1F [compound 78] | 45 | 2 | 9 | 0 | 42 | 10 |
| COC/C(=N\OCc1c(Cl)cccc1/C(=N\OC)C(=O)OC)c1cc(Cl)ccc1F [compound 103] | 72 | 18 | 72 | 18 | – | – |
| CNC(=O)/C(=N/OC)c1cccc(Cl)c1CO/N=C(\COC1CC1)c1ccc(F)cc1 [compound 64] | 45 | 7 | 37 | 7 | – | – |
| CO/C=C(/C(=O)OC)c1cccc(Cl)c1CO/N=C(\COC)c1ccc(Cl)cc1Cl [compound 81] | 35 | 20 | 63 | 21 | – | – |
| CNC(=O)/C(=N/OC)c1cccc(Cl)c1CO/N=C(\COC)c1cccc(F)c1F [compound 91] | 17 | 18 | 13 | 15 | – | – |
| CO/C=C(/C(=O)OC)c1cccc(Cl)c1CO/N=C(\COC1CC1)c1ccccc1 [compound 61] | 16 | 2 | 11 | 0 | – | – |
| CO/C=C(/C(=O)OC)c1cccc(Cl)c1CO/N=C(\COC1CC1)c1ccc(F)cc1 [compound 60] | 21 | 6 | 21 | 2 | – | – |
| CO/C=C(/C(=O)OC)c1cccc(Cl)c1CO/N=C(\COC)c1ccccc1Cl [compound 15, Methyl-(E)-2-[3-chloro-2-[[(Z)-[1-(2-chlorophenyl)-2-methoxy-ethylidene]amino]oxymethyl]phenyl]-3-methoxy-prop-2-enoate] | 40 | 7 | 30 | 4 | – | – |
| CO/C=C(/C(=O)OC)c1cccc(Br)c1CO/N=C(\COC1CC1)c1ccc(F)cc1 [compound 65] | 23 | 2 | 15 | 1 | – | – |
| COC/C(=N\OCc1c(Cl)cccc1/C(=N\OC)C(=O)OC)c1ccccc1C [compound 124] | – | – | – | – | 62 | 22 |
| COC/C(=N\OCc1c(Cl)cccc1/C(=N\OC)C(=O)OC)c1ccc(Cl)cc1F [compound 104] | 27 | 9 | 42 | 7 | – | – |
